# Assay results: patent publication US6949545B2, “Heterocyclic side chain containing, n-substituted metalloprotease inhibitors” (The Procter & Gamble Company, priority 2000, dated 2005)
# Test system: asthma sufferer
# Assay: Example E: inhalation aerosol for asthma
# Assay type: in vivo, human
# Details: 5.0% w/v aerosol, 0.01 mL sprayed into the mouth while inhaling
# Description: An inhalation aerosol composition, according to the present invention, is made comprising: An asthma sufferer sprays 0.01 mL via a pump actuator into the mouth while inhaling.
smiles,measurement,value
"COc1ccc(-c2ccc(S(=O)(=O)N(C)C(C(=O)O)C3CCN(CCc4ccccc4)CC3)cc2)cc1 (stereo not shown) [Example 17, [(4′-Methoxy-biphenyl-4-sulfonyl)-methyl-amino]-(1-phenethyl-piperidin-4-yl)-acetic Acid]",asthma symptoms,Asthma symptoms are diminished
